Data from PMC9213889 (Frontiers in Chemistry, 2022).

Key:
[1] = target: T1, α-amylase from hog pancreas (EC 3.2.1.1) (Sus scrofa, UniProt P00690); test: α-amylase inhibition assay (starch, DNS, absorbance at 540 nm)
T1 sequence (P00690 16-511): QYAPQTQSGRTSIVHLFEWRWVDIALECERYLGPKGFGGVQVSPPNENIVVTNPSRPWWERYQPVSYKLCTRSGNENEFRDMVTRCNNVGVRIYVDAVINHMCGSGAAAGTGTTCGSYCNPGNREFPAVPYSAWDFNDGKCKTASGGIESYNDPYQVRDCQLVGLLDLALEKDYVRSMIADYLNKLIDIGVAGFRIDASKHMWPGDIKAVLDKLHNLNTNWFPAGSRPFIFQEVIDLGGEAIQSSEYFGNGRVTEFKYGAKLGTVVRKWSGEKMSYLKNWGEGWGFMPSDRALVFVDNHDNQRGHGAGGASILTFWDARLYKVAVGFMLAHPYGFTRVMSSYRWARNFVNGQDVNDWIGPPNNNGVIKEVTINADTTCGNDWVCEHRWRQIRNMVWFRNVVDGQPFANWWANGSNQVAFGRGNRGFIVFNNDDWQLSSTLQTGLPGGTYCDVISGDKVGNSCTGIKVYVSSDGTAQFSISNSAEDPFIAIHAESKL
Description: All the compounds were dissolved in DMSO, and DMSO working concentration in the enzyme inhibition test was 5%.
Then, 100 μL starch solution (final concentration 0.5%) was added into the mixture and further incubated for 10 min. After 100 μL DNS (containing 1 M potassium sodium tartrate and 48 mM 3,5-dinitrosalicylic acid) was added, the mixture was boiled for 15 min. After diluting using 900 μL distilled water, the absorbance was measured at 540 nm. […] All experiments were carried out in quadruplicate.

[2] = target: α-glucosidase from Saccharomyces cerevisiae (EC 3.2.1.20) (Saccharomyces cerevisiae, UniProt P53341); test: biochemical; type: biochemical; conditions: for IC50: mean ± SD, quadruplicate, PBS pH 6.8, 37°C, 5% DMSO, read-out: α-glucosidase inhibition (IC50 μM)
α-glucosidase = target: T2, α-glucosidase (Saccharomyces cerevisiae, UniProt P53341); test: Inhibition kinetics assay against α-glucosidase; type: biochemical
T2 construct: purchased Sigma-Aldrich
Description: The α-glucosidase inhibition assay of analogs 4a–4s was carried out as in previously reported methods, with minor modifications ([Xu et al., 2020]). Then, 10 μL α-glucosidase and 10 μL test sample (dissolved in DMSO) were added into 130 μL PBS (50 mM phosphate saline buffer, pH 6.8) and incubated for 10 min at 37°C. After adding 50 μL pNPG, the absorbance change of the mixture at 405 nm was monitored. Then, the percent inhibition was calculated ([Ademiluyi and Oboh, 2013]). All experiments were carried out in quadruplicate.
(§1) The inhibition kinetics of 4i and 4o against α-glucosidase and α-amylase, respectively, was investigated using a similar aforementioned inhibition assay method. The enzyme inhibitory kinetics was obtained by the plots of the enzymatic reaction rate vs. enzyme concentration with or without the inhibitor, and the substrate inhibitory kinetics was measured using the Lineweaver–Burk plot of the enzymatic reaction rate vs. substrate concentration with or without the inhibitor.

HepG2 cells = test: Cell cytotoxicity assay, HepG2; type: cell-based; conditions: under a concentration of 100 μM
3T3-L1 cells = test: Cell cytotoxicity assay, 3T3-L1; type: cell-based; conditions: under a concentration of 100 μM
α-amylase = target: T3, α-amylase (Sus scrofa, UniProt P00690); test: Inhibition kinetics assay against α-amylase; type: biochemical, hog
T3 construct: α-amylase from hog pancreas (EC 3.2.1.1); purchased Sigma-Aldrich; host or cells: hog pancreas
T3 sequence (P00690 16-511): T1 sequence (P00690 16-511)
Description: All experiments were carried out in quadruplicate.
as §1

[3] = plots of enzymatic reaction rate vs. enzyme concentration pass through the origin

T2 sequence (P53341 whole entry): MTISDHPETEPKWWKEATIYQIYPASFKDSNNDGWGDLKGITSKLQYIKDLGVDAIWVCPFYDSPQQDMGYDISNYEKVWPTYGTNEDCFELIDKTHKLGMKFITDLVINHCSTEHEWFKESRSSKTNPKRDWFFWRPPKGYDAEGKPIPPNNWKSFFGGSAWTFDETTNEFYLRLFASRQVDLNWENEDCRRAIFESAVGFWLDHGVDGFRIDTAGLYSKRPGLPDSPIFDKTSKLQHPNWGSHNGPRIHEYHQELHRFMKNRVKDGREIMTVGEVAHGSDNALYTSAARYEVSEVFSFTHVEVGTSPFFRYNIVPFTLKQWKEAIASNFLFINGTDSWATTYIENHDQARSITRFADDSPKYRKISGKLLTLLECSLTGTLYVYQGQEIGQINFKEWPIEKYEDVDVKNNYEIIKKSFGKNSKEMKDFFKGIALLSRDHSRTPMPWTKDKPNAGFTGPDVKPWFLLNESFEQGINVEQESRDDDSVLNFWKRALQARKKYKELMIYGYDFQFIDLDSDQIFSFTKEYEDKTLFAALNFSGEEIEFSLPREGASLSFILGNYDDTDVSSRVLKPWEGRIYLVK
Chain of α-glucosidase from Saccharomyces cerevisiae (EC 3.2.1.20) (P53341 whole entry): as above

Structure (SMILES)	IC50 [1] [µM]	IC50 [2] [µM]	melting point [°C]	also measured
CC1(C)CC[C@]2(C(=O)O)CC[C@]3(C)C(=CCC4[C@@]5(C)C/C(=C\c6ccccc6)[C@H](O)C(C)(C)C5CC[C@]43C)C2C1 (some centres unmarked) [Compound 4a]	41.2 ± 2.99	1.9 ± 0.31		
CC1(C)CC[C@]2(C(=O)O)CC[C@]3(C)C(=CCC4[C@@]5(C)C/C(=C\c6ccccc6[N+](=O)[O-])[C@H](O)C(C)(C)C5CC[C@]43C)C2C1 (some centres unmarked) [Compound 4q]	20.2 ± 1.2	1.17 ± 0.1	197 to 198	
Cc1ccccc1/C=C1\C[C@@]2(C)C(CC[C@]3(C)C2CC=C2C4CC(C)(C)CC[C@]4(C(=O)O)CC[C@]23C)C(C)(C)[C@H]1O (some centres unmarked) [Compound 4b]	19.8 ± 1.22	0.61 ± 0.09	210 to 211	
COc1ccccc1/C=C1\C[C@@]2(C)C(CC[C@]3(C)C2CC=C2C4CC(C)(C)CC[C@]4(C(=O)O)CC[C@]23C)C(C)(C)[C@H]1O (some centres unmarked) [Compound 4e]	20.5 ± 2.29	1.92 ± 0.13	200 to 201	
CC1(C)CC[C@]2(C(=O)O)CC[C@]3(C)C(=CCC4[C@@]5(C)C/C(=C\c6ccccc6Br)[C@H](O)C(C)(C)C5CC[C@]43C)C2C1 (some centres unmarked) [Compound 4n]	16.8 ± 1.04	0.72 ± 0.06	234 to 235	
Cc1ccc(/C=C2\C[C@@]3(C)C(CC[C@]4(C)C3CC=C3C5CC(C)(C)CC[C@]5(C(=O)O)CC[C@]34C)C(C)(C)[C@H]2O)cc1 (some centres unmarked) [Compound 4d]	62.2 ± 1.89	2.41 ± 0.08	146 to 147	
CC1(C)CC[C@]2(C(=O)O)CC[C@]3(C)C(=CCC4[C@@]5(C)C/C(=C\c6cccc(F)c6)[C@H](O)C(C)(C)C5CC[C@]43C)C2C1 (some centres unmarked) [Compound 4i]	20.3 ± 2.18	0.4 ± 0.02	157 to 158	α-glucosidase inhibition, times stronger than acarbose [2]: ~1,663 times; Inhibition type against α-glucosidase (α-glucosidase; Lineweaver–Burk plots, lines intersect in the second quadrant): mixed-type inhibitor; Reversibility of inhibition on α-glucosidase (α-glucosidase; [3]): reversible; Cell cytotoxicity against HepG2 cells (HepG2 cells): non-cytotoxic effect; Cell cytotoxicity against 3T3-L1 cells (3T3-L1 cells): non-cytotoxic effect
COc1ccc(/C=C2\C[C@@]3(C)C(CC[C@]4(C)C3CC=C3C5CC(C)(C)CC[C@]5(C(=O)O)CC[C@]34C)C(C)(C)[C@H]2O)cc1 (some centres unmarked) [Compound 4g]	59.1 ± 1.98	3.96 ± 0.21	296 to 297	
CC1(C)CC[C@]2(C(=O)O)CC[C@]3(C)C(=CCC4[C@@]5(C)C/C(=C\c6ccccc6Cl)[C@H](O)C(C)(C)C5CC[C@]43C)C2C1 (some centres unmarked) [Compound 4k]	45.4 ± 2.16	0.88 ± 0.04	219 to 220	
CC1(C)CC[C@]2(C(=O)O)CC[C@]3(C)C(=CCC4[C@@]5(C)C/C(=C\c6ccc([N+](=O)[O-])cc6)[C@H](O)C(C)(C)C5CC[C@]43C)C2C1 (some centres unmarked) [Compound 4s]	55.6 ± 2.52	1.22 ± 0.14	219 to 220	
CC1(C)CCC2(C(=O)O)CCC3(C)C(=CCC4C5(C)CC(=Cc6cccc(Br)c6)C(O)C(C)(C)C5CCC43C)C2C1 (centres unmarked) [Compound 4o]	9.59 ± 0.58	0.52 ± 0.02	197 to 198	Cell cytotoxicity against HepG2 cells (HepG2 cells): non-cytotoxic effect; Cell cytotoxicity against 3T3-L1 cells (3T3-L1 cells): non-cytotoxic effect; Inhibition type against α-amylase (α-amylase; Lineweaver–Burk plots, lines intersect in the first quadrant): mixed-type inhibitor; Reversibility of inhibition on α-amylase (α-amylase; [3]): reversible
CC1(C)CC[C@]2(C(=O)O)CC[C@]3(C)C(=CCC4[C@@]5(C)C/C(=C\c6ccc(Cl)cc6)[C@H](O)C(C)(C)C5CC[C@]43C)C2C1 (some centres unmarked) [Compound 4m]	20.5 ± 1.09	1.73 ± 0.16	196 to 197	
Cc1cccc(/C=C2\C[C@@]3(C)C(CC[C@]4(C)C3CC=C3C5CC(C)(C)CC[C@]5(C(=O)O)CC[C@]34C)C(C)(C)[C@H]2O)c1 (some centres unmarked) [Compound 4c]	51.1 ± 2.55	0.86 ± 0.05	128 to 129	
CC1(C)CC[C@]2(C(=O)O)CC[C@]3(C)C(=CCC4[C@@]5(C)C/C(=C\c6ccccc6F)[C@H](O)C(C)(C)C5CC[C@]43C)C2C1 (some centres unmarked) [Compound 4h]	18.5 ± 1.39	0.83 ± 0.04	165 to 166	
CC1(C)CC[C@]2(C(=O)O)CC[C@]3(C)C(=CCC4[C@@]5(C)C/C(=C\c6cccc(Cl)c6)[C@H](O)C(C)(C)C5CC[C@]43C)C2C1 (some centres unmarked) [Compound 4l]	19.4 ± 0.73	0.45 ± 0.02	242 to 243	
CC1(C)CC[C@]2(C(=O)O)CC[C@]3(C)C(=CCC4[C@@]5(C)C/C(=C\c6cccc([N+](=O)[O-])c6)[C@H](O)C(C)(C)C5CC[C@]43C)C2C1 (some centres unmarked) [Compound 4r]	20.8 ± 1.88	1.08 ± 0.04	191 to 192	
CC1(C)CC[C@]2(C(=O)O)CC[C@]3(C)C(=CCC4[C@@]5(C)C/C(=C\c6ccc(F)cc6)[C@H](O)C(C)(C)C5CC[C@]43C)C2C1 (some centres unmarked) [Compound 4j]	15.7 ± 1.53	1.23 ± 0.07	226 to 227	
CC1(C)CC[C@]2(C(=O)O)CC[C@]3(C)C(=CCC4[C@@]5(C)C/C(=C\c6ccc(Br)cc6)[C@H](O)C(C)(C)C5CC[C@]43C)C2C1 (some centres unmarked) [Compound 4p]	19.5 ± 1.85	1.18 ± 0.14	224 to 225	
COc1cccc(/C=C2\C[C@@]3(C)C(CC[C@]4(C)C3CC=C3C5CC(C)(C)CC[C@]5(C(=O)O)CC[C@]34C)C(C)(C)[C@H]2O)c1 (some centres unmarked) [Compound 4f]	60.3 ± 1.88	1.63 ± 0.1	200 to 201	
